The compounds below were run against T1, Recombinant human H-PGDS (Homo sapiens, UniProt O60760) (assay: H-PGDS inhibitory activity (prostaglandin D2 production from prostaglandin H2, measured by LC-MS/MS)). Conditions: recombinant human H-PGDS 1.0 nM expressed in E. coli; prostaglandin H2 25 μM; preincubated 15 minutes on ice, reacted on ice for 1 minute; concentration that inhibits prostaglandin D2 production by 50%.
T1 construct: made in house; host or cells: E. coli
Type: biochemical
Summary of the method: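 Recombinant human H-PGDS (E. coli-expressed, 1.0 nM final) preincubated with compound 15 min on ice in 20 mM Tris-HCl pH 8.0, 2 mM MgCl2, 2 mM GSH, 0.5 mg/mL γ-globulin. Reaction with 25 µM PGH2 run 1 min on ice, stopped with FeCl2/citric acid, PGD2 quantified by LC-MS/MS. Activity expressed as % of DMSO control after subtracting non-enzymatic PGD2.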

T1 sequence (O60760 whole entry): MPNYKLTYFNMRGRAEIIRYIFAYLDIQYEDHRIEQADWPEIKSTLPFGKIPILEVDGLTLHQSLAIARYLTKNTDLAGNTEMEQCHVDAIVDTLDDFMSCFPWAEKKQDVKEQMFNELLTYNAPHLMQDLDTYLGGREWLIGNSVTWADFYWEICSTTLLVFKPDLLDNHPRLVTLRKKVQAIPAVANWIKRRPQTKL

| IC50 | SMILES |
| --- | --- |
| 74 nM | Cc1cc(C(=O)N[C@H]2CC[C@H](C(C)(C)O)CC2)ccc1-c1nccc2occc12 [Example 132, 4-(furo[3,2-c]pyridin-4-yl)-N-[trans-4-(2-hydroxypropan-2-yl)cyclohexyl]-3-methylbenzamide] |
| 2.3 nM | O=C(N[C@H]1CCN(c2cnc(CO)cn2)C1)c1ccc(-c2nccc3occc23)cc1 [Example 198, (S)-4-(furo[3,2-c]pyridin-4-yl)-N-{1-[5-(hydroxymethyl)pyrazin-2-yl]pyrrolidin-3-yl}benzamide] |
| 9.6 nM | O=C(NCc1ccccc1)c1ccc(-c2nccc3sccc23)cc1 [Example 59, N-benzyl-4-(thieno[3,2-c]pyridin-4-yl)benzamide] |
| 1 nM | [2H]C([2H])([2H])O[C@H]1CC[C@H](NC(=O)c2ccc(-c3nccc4occc34)cc2)CC1 [Example 286, 4-(furo[3,2-c]pyridin-4-yl)-N-[trans-4-(methoxy-d3)cyclohexyl]benzamide] |
| 12 nM | O=C(NCc1ccccc1Cl)c1ccc(-c2nccc3occc23)cc1 [Example 71, N-(2-chlorobenzyl)-4-(furo[3,2-c]pyridin-4-yl)benzamide] |
| 3.8 nM | O=C(N[C@@H]1CCC[C@@H](O)C1)c1ccc(-c2nccc3occc23)cc1 (relative stereo) [Example 266, 4-(furo[3,2-c]pyridin-4-yl)-N-(trans-3-hydroxycyclohexyl)benzamide] |
| 6.7 nM | O=C(N[C@@H]1CN(c2ncc(CO)cn2)C[C@H]1O)c1ccc(-c2nccc3occc23)cc1 [Example 207, 4-(furo[3,2-c]pyridin-4-yl)-N-((3R,4R)-4-hydroxy-1-[5-(hydroxymethyl)pyrimidin-2-yl]pyrrolidin-3-yl)benzamide] |
| 1.6 nM | O=C(N[C@H]1CC[C@H](C2(O)CC2)CC1)c1ccc(-c2nccc3occc23)cc1 [Example 257, 4-(furo[3,2-c]pyridin-4-yl)-N-[trans-4-(1-hydroxycyclopropyl)cyclohexyl]benzamide] |
| 0.9 nM | [2H]C([2H])(O)c1cc2occc2c(-c2ccc(C(=O)N[C@H]3CC[C@H](C(C)(C)O)CC3)cc2)n1 [Example 320, 4-[6-(hydroxymethyl-d2)furo[3,2-c]pyridin-4-yl]-N-[trans-4-(2-hydroxypropan-2-yl)cyclohexyl]benzamide] |
| 70 nM | CCc1cc2occc2c(-c2ccc(C(=O)N[C@H]3CC[C@H](C(C)(C)O)CC3)cc2)n1 [Example 314, 4-(6-ethylfuro[3,2-c]pyridin-4-yl)-N-[trans-4-(2-hydroxypropan-2-yl)cyclohexyl]benzamide] |
| 1.4 nM | O=C(N[C@H]1CC[C@@H](OCC2(O)CC2)CC1)c1ccc(-c2nccc3occc23)cc1 [Example 353, 4-(furo[3,2-c]pyridin-4-yl)-N-(cis-4-[(1-hydroxycyclopropyl)methoxy]cyclohexyl)benzamide] |
| 1.1 nM | CCC(O)CNC(=O)c1ccc(-c2nccc3[nH]ccc23)cc1 (stereo not drawn) [Example 33, N-(2-hydroxybutyl)-4-(1H-pyrrolo[3,2-c]pyridin-4-yl)benzamide] |
| 14 nM | CC(C)(O)[C@H]1CC[C@H](NC(=O)c2ccc(-c3ncc(CO)c4occc34)cc2)CC1 [Example 135, 4-[7-(hydroxymethyl)furo[3,2-c]pyridin-4-yl]-N-[trans-4-(2-hydroxypropan-2-yl)cyclohexyl]benzamide] |
| 22 nM | CC(C)(O)CNC(=O)c1ccc(-c2nccc3occc23)cc1 [Example 92, 4-(furo[3,2-c]pyridin-4-yl)-N-(2-hydroxy-2-methylpropyl) benzamide] |
| 12 nM | O=C(NCc1ccncc1)c1ccc(-c2nccc3occc23)cc1 [Example 72, 4-(furo[3,2-c]pyridin-4-yl)-N-(pyridin-4-ylmethyl) benzamide] |
| 7.5 nM | O=C(N[C@H]1CCN(c2cccc(=O)[nH]2)C1)c1ccc(-c2nccc3occc23)cc1 [Example 233, (S)-4-(furo[3,2-c]pyridin-4-yl)-N-[1-(6-oxo-1,6-dihydropyridin-2-yl)pyrrolidin-3-yl]benzamide] |
| 2.3 nM | O=C(NC1CCN(c2ncc(Br)c(=O)[nH]2)CC1)c1ccc(-c2nccc3occc23)cc1 [Example 182, N-[1-(5-bromo-6-oxo-1,6-dihydropyrimidin-2-yl)piperidin-4-yl]-4-(furo[3,2-c]pyridin-4-yl)benzamide] |
| 9.2 nM | O=C(N[C@H]1CC[C@H](N2CC(F)(F)C2)CC1)c1ccc(-c2nccc3occc23)cc1 [Example 304, N-[trans-4-(3,3-difluoroazetidin-1-yl)cyclohexyl]-4-(furo[3,2-c]pyridin-4-yl)benzamide] |
| 0.76 nM | O=C(NC1CCN(c2cccnn2)CC1)c1ccc(-c2nccc3occc23)cc1 [Example 190, 4-(furo[3,2-c]pyridin-4-yl)-N-[1-(pyridazin-3-yl)piperidin-4-yl]benzamide] |
| 6.1 nM | O=C(N[C@H]1CCN(c2ccc(CO)cn2)C1)c1ccc(-c2nccc3occc23)cc1 [Example 197, (S)-4-(furo[3,2-c]pyridin-4-yl)-N-{1-[5-(hydroxymethyl)pyridin-2-yl]pyrrolidin-3-yl}benzamide] |
| 1.3 nM | CC(C)O[C@H]1CC[C@H](NC(=O)c2ccc(-c3nccc4occc34)cc2)CC1 [Example 288, 4-(furo[3,2-c]pyridin-4-yl)-N-(trans-4-isopropoxycyclohexyl)benzamide] |
| 15 nM | O=C(NCC1CC1)c1ccc(-c2nccc3occc23)cc1 [Example 83, N-(cyclopropyl-methyl)-4-(furo[3,2-c]pyridin-4-yl)benzamide] |
| 2.3 nM | NS(=O)(=O)c1cccc(NC(=O)c2ccc(-c3nccc4occc34)cc2)c1 [Example 105, 4-(furo[3,2-c]pyridin-4-yl)-N-(3-sulfamoylphenyl) benzamide] |
| 2.8 nM | O=C(N[C@H]1CCCC[C@H]1O)c1ccc(-c2nccc3occc23)cc1 (relative stereo) [Example 273, 4-(furo[3,2-c]pyridin-4-yl)-N-(cis-2-hydroxycyclohexyl)benzamide] |
| 3.4 nM | CCC(=O)N[C@H]1CC[C@H](NC(=O)c2ccc(-c3nccc4occc34)cc2)CC1 [Example 298, 4-(furo[3,2-c]pyridin-4-yl)-N-(trans-4-propionamidocyclohexyl)benzamide] |
| 2.5 nM | COCCO[C@H]1CC[C@H](NC(=O)c2ccc(-c3nccc4occc34)cc2)CC1 [Example 311, 4-(furo[3,2-c]pyridin-4-yl)-N-[trans-4-(2-methoxyethoxy)cyclohexyl]benzamide] |
| 1.2 nM | O=C(NC12CCC(O)(CC1)CC2)c1ccc(-c2nccc3occc23)c(F)c1 [Example 345, 3-fluoro-4-(furo[3,2-c]pyridin-4-yl)-N-(4-hydroxybicyclo[2.2.2]octan-1-yl)benzamide] |
| 0.85 nM | O=C(NCC1CCOCC1)c1ccc(-c2nccc3[nH]ccc23)cc1 [Example 22, 4-(1H-pyrrolo[3,2-c]pyridin-4-yl)-N-[(tetrahydro-2H-pyran-4-yl)methyl] benzamide] |
| 0.86 nM | Cn1nccc1CNC(=O)c1ccc(-c2nccc3[nH]ccc23)cc1 [Example 37, N-[(1-methyl-1H-pyrazol-5-yl)methyl]-4-(1H-pyrrolo[3,2-c]pyridin-4-yl)benzamide] |
| 2.9 nM | CS(=O)(=O)c1ccc(NC(=O)c2ccc(-c3nccc4occc34)cc2)cc1 [Example 109, 4-(furo[3,2-c]pyridin-4-yl)-N-[4-(methylsulfonyl)phenyl]benzamide] |

— patent US20230339937A1, “CONDENSED RING COMPOUNDS THAT INHIBIT H-PGDS” (SATO PHARMACEUTICAL CO., LTD., priority 2020, published 2023)
